Laboratory results reported in patent publication US20100068181A1, “PYRROLO [3, 2-A] PYRIDINE DERIVATIVES FOR INHIBITING KSP KINESIN ACTIVITY” (Schering Corporation, priority 2006, published 2010).

These compounds were tested against T1, KSP (Homo sapiens, UniProt P52732) (assay: KSP inhibitory activity, end-point assay). Conditions: KSP inhibitory activity based on end-point assay; read-out: IC50 Rating.
T1 sequence (P52732 1-1056): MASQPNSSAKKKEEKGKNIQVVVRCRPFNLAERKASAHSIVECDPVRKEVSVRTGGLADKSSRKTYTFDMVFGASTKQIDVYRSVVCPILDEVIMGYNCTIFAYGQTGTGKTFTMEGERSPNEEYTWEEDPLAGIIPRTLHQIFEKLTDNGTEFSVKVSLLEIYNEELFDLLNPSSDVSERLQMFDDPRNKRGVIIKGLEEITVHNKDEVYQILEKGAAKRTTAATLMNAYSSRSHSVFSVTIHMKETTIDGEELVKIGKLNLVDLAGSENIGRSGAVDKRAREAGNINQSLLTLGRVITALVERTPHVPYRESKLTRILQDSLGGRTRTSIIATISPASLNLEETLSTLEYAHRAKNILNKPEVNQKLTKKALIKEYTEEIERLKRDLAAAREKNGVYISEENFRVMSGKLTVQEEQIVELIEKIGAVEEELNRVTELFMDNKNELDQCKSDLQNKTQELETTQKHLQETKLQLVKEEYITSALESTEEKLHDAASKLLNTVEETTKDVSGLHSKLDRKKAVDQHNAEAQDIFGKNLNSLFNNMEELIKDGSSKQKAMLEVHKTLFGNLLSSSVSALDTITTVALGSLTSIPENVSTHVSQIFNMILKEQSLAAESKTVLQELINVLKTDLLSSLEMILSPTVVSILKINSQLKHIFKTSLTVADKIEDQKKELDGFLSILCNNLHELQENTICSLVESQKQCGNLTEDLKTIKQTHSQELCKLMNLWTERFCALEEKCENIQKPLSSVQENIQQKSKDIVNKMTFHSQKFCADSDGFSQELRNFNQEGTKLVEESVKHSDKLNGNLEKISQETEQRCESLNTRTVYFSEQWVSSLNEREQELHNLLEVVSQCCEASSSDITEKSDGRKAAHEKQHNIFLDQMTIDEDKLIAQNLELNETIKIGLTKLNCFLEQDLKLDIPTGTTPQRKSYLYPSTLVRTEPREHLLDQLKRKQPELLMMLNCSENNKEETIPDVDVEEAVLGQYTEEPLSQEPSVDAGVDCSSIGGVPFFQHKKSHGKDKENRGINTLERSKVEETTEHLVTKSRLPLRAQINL
Format: biochemical
Source text: The inhibitory activity of the present compounds towards KSP may be assayed by methods known in the art, for example, by using the methods as described in the examples.

Row | Compound | IC50
1 | CC(C)(C)C1CCc2nc3c(NCCO)c(C(N)=O)[nH]c3cc2C1 (centres unmarked) [Example 66] | 1000 to 10000 nM
2 | CC(C)(C)C1CCc2nc3c(NS(C)(=O)=O)c(C(N)=O)[nH]c3cc2C1 (centres unmarked) [Example 68] | 1000 to 10000 nM
3 | CCOC(=O)c1c(Cl)[nH]c2cc3c(nc12)CCC(C(C)(C)C)C3 (centres unmarked) [Example 69] | > 10000 nM
4 | CCOC(=O)c1c[nH]c2cc3c(nc12)CCC(C(C)(C)C)C3 (centres unmarked) [Example 70] | > 10000 nM
5 | CC(C)(C)C1CCc2nc3c(C(=O)NCCO)c[nH]c3cc2C1 (centres unmarked) [Example 72] | 1000 to 10000 nM
6 | CC(C)(C)C1CCc2nc3c(C(=O)NCCN4CCNCC4)c[nH]c3cc2C1 (centres unmarked) [Example 74] | > 10000 nM
7 | C[C@@H](CO)NC(=O)c1c[nH]c2cc3c(nc12)CCC(C(C)(C)C)C3 (some centres unmarked) [Example 76] | > 10000 nM
8 | CC(C)(C)C1CCc2nc3c(C(=O)NCCCO)c[nH]c3cc2C1 (centres unmarked) [Example 80] | 1000 to 10000 nM
9 | CC(C)(C)C1CCc2nc3cc[nH]c3cc2C1 (centres unmarked) [Example 83] | < 100 nM
10 | CC(C)(C)C1CCc2nc3c(CC(N)=O)c(O)[nH]c3cc2C1 (centres unmarked) [Example 85] | > 10000 nM
11 | COCc1cc2nc3c(cc2[nH]1)CC(C(C)(C)C)CC3 (centres unmarked) [Example 87] | 100 to 1000 nM
12 | CCOCc1cc2nc3c(cc2[nH]1)CC(C(C)(C)C)CC3 (centres unmarked) [Example 88] | 100 to 1000 nM
13 | CC(C)OCc1cc2nc3c(cc2[nH]1)CC(C(C)(C)C)CC3 (centres unmarked) [Example 89] | > 10000 nM
14 | CC(C)(C)C1CCc2nc3cc(C(=O)NCc4ccc5c(c4)OCO5)[nH]c3cc2C1 (centres unmarked) [Example 90] | > 10000 nM
15 | Cc1cc(C)n(C(=O)c2c[nH]c3cc4c(nc23)CCC(C(C)(C)C)C4)n1 (centres unmarked) [Example 93] | > 10000 nM
16 | CC(C)(C)C1CCc2nc3cc(C(=O)Nc4ccncc4)[nH]c3cc2C1 (centres unmarked) [Example 97] | 100 to 1000 nM
17 | CC(C)(C)C1CCc2nc3cc(C(=O)NNCCC#N)[nH]c3cc2C1 (centres unmarked) [Example 99] | > 10000 nM

Row | Compound | IC50
18 | CNNC(=O)c1cc2nc3c(cc2[nH]1)CC(C(C)(C)C)CC3 (centres unmarked) [Example 100] | > 10000 nM
19 | CC(C)(C)C1CCc2nc3cc(C(=O)NNc4ccccn4)[nH]c3cc2C1 (centres unmarked) [Example 101] | 100 to 1000 nM
20 | CC(C)(C)C1CCc2nc3cc(C(=O)Nc4ccc(O)cc4)[nH]c3cc2C1 (centres unmarked) [Example 102] | 100 to 1000 nM
21 | CC(C)(C)[C@@H]1CCc2nc3cc(C(=O)Nc4ccc(O)cc4)[nH]c3cc2C1 [Example 103A] | 100 to 1000 nM
22 | CC(C)(C)C1CCc2nc3cc(C(=O)Nc4ccc(N)nc4)[nH]c3cc2C1 (centres unmarked) [Example 104] | 100 to 1000 nM
23 | CC(C)(C)C1CCc2nc3cc(C(=O)Nc4ccc(CCO)cc4)[nH]c3cc2C1 (centres unmarked) [Example 105] | 1000 to 10000 nM
24 | CC(C)(C)C1CCc2nc3cc(C(=O)N[C@H](CO)Cc4ccccc4)[nH]c3cc2C1 (some centres unmarked) [Example 108] | > 10000 nM
25 | COc1ccc(C(O)c2cc3nc4c(cc3[nH]2)CC(C(C)(C)C)CC4)cc1 (centres unmarked) [Example 111] | > 10000 nM
26 | CC(C)(C)C1CCc2nc3cc(C(O)c4cccc(Cl)c4)[nH]c3cc2C1 (centres unmarked) [Example 112] | > 10000 nM
27 | CCC(O)c1cc2nc3c(cc2[nH]1)CC(C(C)(C)C)CC3 (centres unmarked) [Example 113] | 100 to 1000 nM
28 | C=CCC(O)c1cc2nc3c(cc2[nH]1)CC(C(C)(C)C)CC3 (centres unmarked) [Example 114] | 100 to 1000 nM
29 | COc1ccc(OC)c(-c2c(C(N)=O)[nH]c3cc4c(nc23)CCC(C(C)(C)C)C4)c1 (centres unmarked) [Example 118] | > 10000 nM
30 | CC(C)(C)C1CCc2nc3c(-c4cccc(C#N)c4)c(C(N)=O)[nH]c3cc2C1 (centres unmarked) [Example 119] | > 10000 nM
31 | CC(C)(C)C1CCc2nc3c(-c4cccc(N)c4)c(C(N)=O)[nH]c3cc2C1 (centres unmarked) [Example 121] | > 10000 nM
32 | CC(C)(C)C1CCc2nc3cc(C(=O)N[C@H](CN)c4ccccc4)[nH]c3cc2C1 (some centres unmarked) [Example 122] | 100 to 1000 nM
33 | CC(C)(C)C1CCc2nc3cc(C(=O)N[C@H](CN)c4cccc(N)c4)[nH]c3cc2C1 (some centres unmarked) [Example 123] | < 100 nM
34 | CC(C)(C)C1CCc2nc3cc(C(=O)N[C@H](CN)c4cccc(NC(=O)c5ccco5)c4)[nH]c3cc2C1 (some centres unmarked) [Example 124] | < 100 nM

Results, then the compound that gave them:

Row | IC50 | Compound
35 | > 10000 nM | CCOC(=O)c1[nH]c2cc3c(nc2c1NCCCO)CCC(C(C)(C)C)C3 (centres unmarked) [Example 67]
36 | > 10000 nM | COC(=O)c1c[nH]c2cc3c(nc12)CCC(C(C)(C)C)C3 (centres unmarked) [Example 71]
37 | > 10000 nM | CC(C)(C)C1CCc2nc3c(C(=O)NCCN)c[nH]c3cc2C1 (centres unmarked) [Example 73]
38 | > 10000 nM | CC(C)(C)C1CCc2nc3c(C(=O)NCc4cccnc4)c[nH]c3cc2C1 (centres unmarked) [Example 75]
39 | > 10000 nM | C[C@H](CO)NC(=O)c1c[nH]c2cc3c(nc12)CCC(C(C)(C)C)C3 (some centres unmarked) [Example 77]
40 | > 10000 nM | C=CCNC(=O)c1c[nH]c2cc3c(nc12)CCC(C(C)(C)C)C3 (centres unmarked) [Example 78]
41 | 100 to 1000 nM | CC(C)(C)C1CCc2nc3c(C(=O)NN)c[nH]c3cc2C1 (centres unmarked) [Example 79]
42 | 100 to 1000 nM | CC(C)(C)C1CCc2nc3c(C(N)=O)c[nH]c3cc2C1 (centres unmarked) [Example 82]
43 | 1000 to 10000 nM | CC(=O)Nc1c[nH]c2cc3c(nc12)CCC(C(C)(C)C)C3 (centres unmarked) [Example 84]
44 | 100 to 1000 nM | COCCOCc1cc2nc3c(cc2[nH]1)CC(C(C)(C)C)CC3 (centres unmarked) [Example 86]
45 | > 10000 nM | CC(C)(C)C1CCc2nc3cc(C(=O)NCc4ccccn4)[nH]c3cc2C1 (centres unmarked) [Example 91]
46 | 1000 to 10000 nM | CC(C)(C)C1CCc2nc3cc(C(=O)NCCN4CCNCC4)[nH]c3cc2C1 (centres unmarked) [Example 92]
47 | > 10000 nM | CC(C)(C)C1CCc2nc3c(C(=O)Nc4ncccn4)c[nH]c3cc2C1 (centres unmarked) [Example 94]
48 | > 10000 nM | CC(C)(C)C1CCc2nc3cc(C(=O)NNc4ccccc4)[nH]c3cc2C1 (centres unmarked) [Example 95]
49 | 100 to 1000 nM | CC(C)(C)C1CCc2nc3cc(C(=O)Nc4nnn[nH]4)[nH]c3cc2C1 (centres unmarked) [Example 96]
50 | > 10000 nM | CCOC(=O)c1cc(NC(=O)c2cc3nc4c(cc3[nH]2)CC(C(C)(C)C)CC4)c[nH]1 (centres unmarked) [Example 98]
51 | > 10000 nM | CC(C)(C)[C@H]1CCc2nc3cc(C(=O)Nc4ccc(O)cc4)[nH]c3cc2C1 [Example 103B]
52 | 100 to 1000 nM | CC(C)(C)C1CCc2nc3cc(C(=O)N[C@H](CO)c4ccccc4)[nH]c3cc2C1 (some centres unmarked) [Example 106]
53 | > 10000 nM | CC(C)(C)C1CCc2nc3cc(C(=O)N[C@@H](CO)c4ccccc4)[nH]c3cc2C1 (some centres unmarked) [Example 107]
54 | > 10000 nM | CC(C)(C)C1CCc2nc3cc(C(O)c4ccccc4)[nH]c3cc2C1 (centres unmarked) [Example 109]
55 | > 10000 nM | COc1cccc(C(O)c2cc3nc4c(cc3[nH]2)CC(C(C)(C)C)CC4)c1 (centres unmarked) [Example 110]
56 | 1000 to 10000 nM | CC(C)(C)C1CCc2nc3c(-c4cccc(O)c4)c(C(N)=O)[nH]c3cc2C1 (centres unmarked) [Example 115]
57 | > 10000 nM | COc1cccc(-c2c(C(N)=O)[nH]c3cc4c(nc23)CCC(C(C)(C)C)C4)c1 (centres unmarked) [Example 116]
58 | > 10000 nM | CC(C)(C)C1CCc2nc3c(-c4cccc(OC(F)(F)F)c4)c(C(N)=O)[nH]c3cc2C1 (centres unmarked) [Example 117]
59 | 100 to 1000 nM | CC(C)(C)C1CCc2nc3c(-c4cccc(S(C)(=O)=O)c4)c(C(N)=O)[nH]c3cc2C1 (centres unmarked) [Example 120]
